In this assay the test system is MS2 DNA sequence. As to the kind of experiment: DNA footprinting study against the MS2 DNA sequence. The class given is binding, bacteriophage. The note with it: cleavage pattern on electrophoresis gel. Here is the method:
In order to assess the binding of test compounds to DNA, a footprinting study against the MS2 DNA sequence was carried out. The sequence is as follows:
and is derived from a bacteriophage.
The footprinting technique in the context of DNA allows the determination of binding sites for drugs or biological macromolecules. It relies on the fact that DNA is cleaved relatively non-specifically by free radicals (e.g. hydroxyl radical footprinting) or enzymes (e.g. DNase I footprinting). Thus if DNA is 32p end labelled on one strand (so that it may be observed autoradiographically) and exposed to the cleavage agent for a certain time, then a laddering pattern may be seen when the resulting fragments are separated by gel electrophoresis (separation on the basis of size). If a compound which binds to DNA is added prior to the cleavage agent then this hinders access of the enzyme or radical to the DNA and blocks cleavage at the molecule binding site. Thus if the compound binds discretely then a specific cleavage block should be seen on the gel relative to the DNA not treated with compound, which is termed the ‘footprint’. (see FIG. 1)

Our source for the coating event and specific footprinting activity values is patent US20070249591A1, “Biaryl Amino Acids and Their Use in Dna Binding Oligomers” (Spirogen Limited, priority 2004, published 2007).

For `CCOC(=O)c1csc(-c2ccc(NC(=O)c3csc(-c4ccc(NC(=O)CCCN(C)C)cc4)n3)cc2)n1` [Compound 9, Ethyl 2-[4-({2-[4-(4-dimethylaminobutyrylamino)phenyl]thiazole-4-carbonyl}amino)phenyl]thiazole-4-carboxylate], the coating event result is “no clear coating event” and the specific footprinting activity result is recorded as “no specific footprinting activity”.
